Laboratory results: the NIST ThermoML archive (doi:10.1021/je800248w)

How the values were obtained:
[1] = molar heat capacity at constant pressure; xn = mol fraction of the nth substance listed; conditions: 101.3 kPa, Liquid, Small sample (50 mg) DSC
[2] = excess molar enthalpy (molar enthalpy of mixing); xn = mol fraction of the nth substance listed; conditions: 101 kPa, Liquid, Calvet calorimetry

CCn1cc[n+](C)c1.O=C([O-])C(F)(F)F [1-ethyl-3-methylimidazolium trifluoroacetate] + O
Conditions	excess molar enthalpy [kcal/mol]	molar heat capacity at constant pressure [J/K/mol]
[1], 283.15 K, x2 = 0	–	308
[1], 283.15 K, x2 = 0.2025	–	264
[1], 283.15 K, x2 = 0.3973	–	226
[1], 283.15 K, x2 = 0.5817	–	182
[1], 283.15 K, x2 = 0.7562	–	139
[1], 283.15 K, x2 = 0.842	–	117
[1], 283.15 K, x2 = 0.9256	–	99
[1], 283.15 K, x2 = 0.9668	–	87
[1], 283.15 K, x2 = 0.9912	–	78
[1], 293.15 K, x2 = 0	–	313
[1], 293.15 K, x2 = 0.2025	–	269
[1], 293.15 K, x2 = 0.3973	–	231
[1], 293.15 K, x2 = 0.5817	–	186
[1], 293.15 K, x2 = 0.7562	–	143
[1], 293.15 K, x2 = 0.842	–	120
[1], 293.15 K, x2 = 0.9256	–	100
[1], 293.15 K, x2 = 0.9668	–	90
[1], 293.15 K, x2 = 0.9912	–	80
[1], 303.15 K, x2 = 0	–	320
[1], 303.15 K, x2 = 0.2025	–	274
[1], 303.15 K, x2 = 0.3973	–	238
[1], 303.15 K, x2 = 0.5817	–	191
[1], 303.15 K, x2 = 0.7562	–	147
[1], 303.15 K, x2 = 0.842	–	122
[1], 303.15 K, x2 = 0.9256	–	102
[1], 303.15 K, x2 = 0.9668	–	91
[1], 303.15 K, x2 = 0.9912	–	80
[1], 313.15 K, x2 = 0	–	324
[1], 313.15 K, x2 = 0.2025	–	276
[1], 313.15 K, x2 = 0.3973	–	241
[1], 313.15 K, x2 = 0.5817	–	194
[1], 313.15 K, x2 = 0.7562	–	150
[1], 313.15 K, x2 = 0.842	–	124
[1], 313.15 K, x2 = 0.9256	–	103
[1], 313.15 K, x2 = 0.9668	–	92
[1], 313.15 K, x2 = 0.9912	–	81
[1], 323.15 K, x2 = 0	–	328
[1], 323.15 K, x2 = 0.2025	–	280
[1], 323.15 K, x2 = 0.3973	–	245
[1], 323.15 K, x2 = 0.5817	–	198
[1], 323.15 K, x2 = 0.7562	–	153
[1], 323.15 K, x2 = 0.842	–	126
[1], 323.15 K, x2 = 0.9256	–	104
[1], 323.15 K, x2 = 0.9668	–	92
[1], 323.15 K, x2 = 0.9912	–	81
[1], 333.15 K, x2 = 0	–	332
[1], 333.15 K, x2 = 0.2025	–	285
[1], 333.15 K, x2 = 0.3973	–	251
[1], 333.15 K, x2 = 0.5817	–	201
[1], 333.15 K, x2 = 0.7562	–	155
[1], 333.15 K, x2 = 0.842	–	127
[1], 333.15 K, x2 = 0.9256	–	104
[1], 333.15 K, x2 = 0.9668	–	92
[1], 333.15 K, x2 = 0.9912	–	81
[1], 343.15 K, x2 = 0	–	337
[1], 343.15 K, x2 = 0.2025	–	290
[1], 343.15 K, x2 = 0.3973	–	254
[1], 343.15 K, x2 = 0.5817	–	204
[1], 343.15 K, x2 = 0.7562	–	157
[1], 343.15 K, x2 = 0.842	–	129
[1], 343.15 K, x2 = 0.9256	–	105
[1], 343.15 K, x2 = 0.9668	–	92
[1], 343.15 K, x2 = 0.9912	–	81
[2], 313.04 K, x2 = 0.2499	-0.315	–
[2], 313.04 K, x2 = 0.25	-0.315	–
[2], 313.04 K, x2 = 0.498	-0.511	–
[2], 313.04 K, x2 = 0.4981	-0.511	–
[2], 313.04 K, x2 = 0.7483	-0.49	–
[2], 313.04 K, x2 = 0.7484	-0.49	–
[2], 323.04 K, x2 = 0.2474	-0.312	–
[2], 323.04 K, x2 = 0.2485	-0.313	–
[2], 323.04 K, x2 = 0.4967	-0.501	–
[2], 323.04 K, x2 = 0.4993	-0.502	–
[2], 323.04 K, x2 = 0.7472	-0.469	–
[2], 323.04 K, x2 = 0.7482	-0.468	–
[2], 333.06 K, x2 = 0.2464	-0.311	–
[2], 333.06 K, x2 = 0.2477	-0.312	–
[2], 333.06 K, x2 = 0.4934	-0.492	–
[2], 333.06 K, x2 = 0.4966	-0.494	–
[2], 333.06 K, x2 = 0.7466	-0.449	–
[2], 333.06 K, x2 = 0.7476	-0.448	–
[2], 348.06 K, x2 = 0.2486	-0.312	–
[2], 348.06 K, x2 = 0.2489	-0.311	–
[2], 348.06 K, x2 = 0.4979	-0.478	–
[2], 348.06 K, x2 = 0.4994	-0.478	–
[2], 348.06 K, x2 = 0.748	-0.412	–
[2], 348.06 K, x2 = 0.7484	-0.411	–
